Experimental data published in US20260337193A1, “SMALL MOLECULE INHIBITORS OF UBIQUITIN SPECIFIC PROTEASE 1 (USP1) AND USES THEREOF” (Insilico Medicine IP Limited, priority 2023, published 2026).
pIC50: −log10 of the molar value.

Experiments:
MDA-MB-436 cells = experiment: MDA-MB-436 breast cancer cell proliferation assay (CellTiter-Glo); format: cell-based; conditions: Homo sapiens, 168 h, 7 days, 37° C.
Protocol: Example A2: MDA-MB-436 Breast Cancer Cell Culture
MDA-MB-436 cells were grown in Leibovitz's L-15 medium with 10 μg/ml insulin, 16 μg/ml glutathione, 10% FBS. Cells were passaged at subconfluence after trypsinization and maintained in incubators at 37° C. in a humidified atmosphere with 5% CO2.
Example A3: MDA-MB-436 Breast Cancer Cell Proliferation Assay
Cell proliferation was determined using CellTiter-Glo® Luminescent Cell Viability Assay (Promega, #G7573). MDA-MB-436 cells were seeded in 384-well plates and allowed to attach for 24 h. Compounds were added into 384-well plate by ECHO, and incubated at 37° C. in a humidified atmosphere with 5% CO2. After 7 days, CellTiter-Glo® was added into 384 well plates, contents were mixed on an orbital shaker at 400 g for 2 min before centrifuging the plate for 2 min at 1000 rpm. After incubation at RT for 30 min, luminescence was read on envision.

[1] = biological target: T1, Human recombinant USP1/UAF1 (Homo sapiens, UniProt O94782); experiment: Enzymatic assay: USP1/UAF1 deubiquitination of Ubiquitin Rhodamine 110 (kinetic fluorescence); format: biochemical; conditions: 2 nM USP1/UAF1, 15 min preincubation at RT, HEPES pH 8.0, 500 nM Ubiquitin Rhodamine 110
T1 construct: purchased R & D E-568-050; host or cells: baculovirus infected Sf21 cells
T1 sequence (O94782 whole entry): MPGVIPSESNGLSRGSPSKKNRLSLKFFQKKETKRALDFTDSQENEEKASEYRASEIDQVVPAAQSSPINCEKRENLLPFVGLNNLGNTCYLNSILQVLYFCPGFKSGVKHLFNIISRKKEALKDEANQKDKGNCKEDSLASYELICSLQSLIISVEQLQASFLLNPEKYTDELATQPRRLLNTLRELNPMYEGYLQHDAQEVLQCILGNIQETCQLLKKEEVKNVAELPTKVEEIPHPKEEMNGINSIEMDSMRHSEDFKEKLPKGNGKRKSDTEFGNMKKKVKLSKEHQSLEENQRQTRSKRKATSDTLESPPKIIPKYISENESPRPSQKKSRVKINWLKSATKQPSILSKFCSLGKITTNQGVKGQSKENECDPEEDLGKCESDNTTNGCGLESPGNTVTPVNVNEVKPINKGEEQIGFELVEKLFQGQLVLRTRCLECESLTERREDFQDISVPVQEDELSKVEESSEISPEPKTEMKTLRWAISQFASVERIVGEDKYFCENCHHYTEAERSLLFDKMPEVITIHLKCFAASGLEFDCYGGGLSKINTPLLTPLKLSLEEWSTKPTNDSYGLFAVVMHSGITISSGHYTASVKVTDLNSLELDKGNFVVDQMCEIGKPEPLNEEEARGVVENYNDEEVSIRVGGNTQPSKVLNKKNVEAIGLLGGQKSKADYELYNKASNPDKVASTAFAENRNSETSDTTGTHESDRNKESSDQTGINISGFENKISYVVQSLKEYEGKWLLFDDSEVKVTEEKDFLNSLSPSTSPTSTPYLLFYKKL
T1 sequence (Q8TAF3 whole entry partner): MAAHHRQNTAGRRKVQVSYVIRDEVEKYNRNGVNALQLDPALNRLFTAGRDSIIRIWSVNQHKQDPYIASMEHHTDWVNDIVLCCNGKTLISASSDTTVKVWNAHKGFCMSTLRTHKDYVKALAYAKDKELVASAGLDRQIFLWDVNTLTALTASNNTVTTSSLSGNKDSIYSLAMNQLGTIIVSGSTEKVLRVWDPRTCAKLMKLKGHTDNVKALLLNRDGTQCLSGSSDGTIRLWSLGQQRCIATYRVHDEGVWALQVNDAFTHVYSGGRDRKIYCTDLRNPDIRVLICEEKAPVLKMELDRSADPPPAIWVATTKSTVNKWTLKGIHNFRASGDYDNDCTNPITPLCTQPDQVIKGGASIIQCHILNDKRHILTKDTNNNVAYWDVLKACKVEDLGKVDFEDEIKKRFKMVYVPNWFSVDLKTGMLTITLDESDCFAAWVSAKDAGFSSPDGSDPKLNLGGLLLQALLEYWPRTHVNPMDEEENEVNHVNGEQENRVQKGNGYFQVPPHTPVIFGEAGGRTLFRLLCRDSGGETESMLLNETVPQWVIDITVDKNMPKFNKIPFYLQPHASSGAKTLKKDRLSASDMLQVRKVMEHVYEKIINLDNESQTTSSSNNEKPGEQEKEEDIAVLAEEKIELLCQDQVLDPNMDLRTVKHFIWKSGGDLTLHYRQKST
Protocol: Example A1: Enzymatic Assay
Human recombinant USP1/UAF1 expressed in baculovirus infected Sf21 cells were used (R & D, E-568-050). Test compound and/or vehicle was incubated with 2 nM of USP1/UAF1 in modified HEPES buffer pH 8.0 for 15 minutes at RT. The reaction was initiated by addition of 500 nM of Ubiquitin Rhodamine 110 (R & D, U-555-050) for kinetic reading. Slope change of fluorescence intensity was read spectrofluorimetrically at 485 nm/535 nm. Dose response of test compounds or reference compound ML-323 was analyzed by nonlinear regression of GraphPad prism software.

SMILES	pIC50 (MDA-MB-436 cells)	pIC50 [1]
COc1ncnc(C2CC2)c1-n1nc(C)c2c1CN(c1ccc(-c3nc(C(F)(F)F)cn3C(C)C)cn1)CC2 [Compound 13, 1-(4-cyclopropyl-6-methoxypyrimidin-5-yl)-6-(5-(1-isopropyl-4-(trifluoromethyl)-1H-imidazol-2-yl)pyridin-2-yl)-3-methyl-4,5,6,7-tetrahydro-1H-pyrazolo[3,4-c]pyridine]	6.00 to 7.30	6.00 to 7.30
CC(C)c1ncccc1-c1ncnc2c1CN(c1ccc(-c3nc(C(F)(F)F)cn3C)cc1)CC2 [Compound 1, 4-(2-isopropylpyridin-3-yl)-6-(4-(1-methyl-4-(trifluoromethyl)-1H-imidazol-2-yl)phenyl)-5,6,7,8-tetrahydropyrido[4,3-d]pyrimidine]	5.00 to 6.00	5.00 to 6.00
COc1ncnc(C2CC2)c1-n1nc(C)c2c1CN(c1cnc(-c3nc(C(F)(F)F)cn3C)cn1)CC2 [Compound 15, 1-(4-cyclopropyl-6-methoxypyrimidin-5-yl)-3-methyl-6-(5-(1-methyl-4-(trifluoromethyl)-1H-imidazol-2-yl)pyrazin-2-yl)-4,5,6,7-tetrahydro-1H-pyrazolo[3,4-c]pyridine]	> 7.30	> 7.30
COc1ncnc(C2CC2)c1-c1nn(C)c2c1CN(c1cnc(-c3nc(C(F)(F)F)cn3C)s1)C2 [Compound 10, 5-(3-(4-cyclopropyl-6-methoxypyrimidin-5-yl)-1-methyl-4,6-dihydropyrrolo[3,4-c]pyrazol-5(1H)-yl)-2-(1-methyl-4-(trifluoromethyl)-1H-imidazol-2-yl)thiazole]	6.00 to 7.30	6.00 to 7.30
COc1ncnc(C2CC2)c1-n1nc(C)c2c1CN(c1ccc(-c3nc(C(F)(F)F)cn3C)nc1)CC2 [Compound 14, 1-(4-cyclopropyl-6-methoxypyrimidin-5-yl)-3-methyl-6-(6-(1-methyl-4-(trifluoromethyl)-1H-imidazol-2-yl)pyridin-3-yl)-4,5,6,7-tetrahydro-1H-pyrazolo[3,4-c]pyridine]	6.00 to 7.30	6.00 to 7.30
COc1ncnc(C2CC2)c1-c1nn(C)c2c1CN(c1ncc(-c3nc(C(F)(F)F)cn3C(C)C)s1)C2 [Compound 8, 2-(3-(4-cyclopropyl-6-methoxypyrimidin-5-yl)-1-methyl-4,6-dihydropyrrolo[3,4-c]pyrazol-5(1H)-yl)-5-(1-isopropyl-4-(trifluoromethyl)-1H-imidazol-2-yl)thiazole]	6.00 to 7.30	6.00 to 7.30
COc1ncnc(C2CC2)c1-n1nc(C)c2c1CN(c1ccc(-c3nc(C(F)(F)F)cn3C)cn1)CC2 [Compound 11, 1-(4-cyclopropyl-6-methoxypyrimidin-5-yl)-3-methyl-6-(5-(1-methyl-4-(trifluoromethyl)-1H-imidazol-2-yl)pyridin-2-yl)-4,5,6,7-tetrahydro-1H-pyrazolo[3,4-c]pyridine]	> 7.30	6.00 to 7.30

Further lines, results first:

pIC50 (MDA-MB-436 cells)	pIC50 [1]	SMILES
6.00 to 7.30	6.00 to 7.30	Cc1nn(-c2c(OC(F)F)ncnc2C2CC2)c2c1CCN(c1ccc(-c3nc(C(F)(F)F)cn3C)cn1)C2 [Compound 24, 1-(4-cyclopropyl-6-(difluoromethoxy)pyrimidin-5-yl)-3-methyl-6-(5-(1-methyl-4-(trifluoromethyl)-1H-imidazol-2-yl)pyridin-2-yl)-4,5,6,7-tetrahydro-1H-pyrazolo[3,4-c]pyridine]
6.00 to 7.30	6.00 to 7.30	COc1ncnc(C2CC2)c1-n1nc(C)c2c1CN(c1ccc(-n3nc(C(F)(F)F)cc3C)cn1)CC2 [Compound 20, 1-(4-cyclopropyl-6-methoxypyrimidin-5-yl)-3-methyl-6-(5-(5-methyl-3-(trifluoromethyl)-1H-pyrazol-1-yl)pyridin-2-yl)-4,5,6,7-tetrahydro-1H-pyrazolo[3,4-c]pyridine]
> 7.30	> 7.30	COc1ncnc(C2CC2)c1-n1nc(C)c2c1CN(c1ccc(-c3nc(C(F)(F)F)cn3C)c(F)n1)CC2 [Compound 25, 1-(4-cyclopropyl-6-methoxypyrimidin-5-yl)-6-(6-fluoro-5-(1-methyl-4-(trifluoromethyl)-1H-imidazol-2-yl)pyridin-2-yl)-3-methyl-4,5,6,7-tetrahydro-1H-pyrazolo[3,4-c]pyridine]
